US20260306460A1, “COMPOSITION FOR REMOVING AND INHIBITING SENESCENT CELLS, AND USES THEREOF” (LIFECEUTIX CO., LTD., priority 2023, published 2026)

Experiments:
Splnocyte = conditions: cited from earlier work
SAOS-2 = test: Suppression of doxorubicin-senescent SAOS-2 tumors in nude mice, Example 19; type: in vivo, mouse; conditions: after DOX 10 mg/kg ip; 21 days daily; LX-5701 360 mg/kg po, LX-2101 20 mg/kg ip, LX-2102 10 mg/kg ip; DOX repeated as control
Method: Seven-week-old male BALB/c nude mice (KRIBB Laboratory Animal Resource Center) were acclimated to the experimental environment for one week, after which they were randomly assigned to experimental and control groups. Evaluation was performed using the same method as in Example 2-1 of WO2023-085787 A1. Cultured human osteosarcoma cell lines, SAOS-2 (10^6 cells), were mixed in phosphate-buffered saline (PBS) and administered subcutaneously to anesthetized mice using 2% isoflurane (Sigma). When the tumors reached approximately […], doxorubicin (10 mg/kg) was mixed in a 1:1 solution of distilled water and PBS (pH 7.2) and administered intraperitoneally to induce tumor senescence. After 10 days, LX-5701 mixed in PBS at a concentration of 360 mg/kg was administered orally daily for 21 days, or LX-2101 mixed in PBS solution with 5% DMSO at a concentration of 20 mg/kg or LX-2102 mixed in PBS with 5% DMSO at a concentration of 10 mg/kg was administered intraperitoneally daily for 21 days, and then the tumor size was measured. The control group was repeatedly administered a solution mixed with doxorubicin, and then the tumor size was measured.

senescent human cells = test: Viability of doxorubicin-induced senescent human cells (CellTiter-Glo), Example 11; type: cell-based
Method: Cells in which senescence was induced by treatment with doxorubicin were treated with the test compound at designated concentrations and measured using the CellTiter-Glo Luminescent Cell Viability Assay (Promega).

[1] = system: HMGN1 secreted from senescent A549 cells; test: HMGN1 secretion (ELISA) from senescent A549 cancer cells, Example 12; type: cell-based, human; conditions: senescent untreated = 100%; 30 μM; 90 μM for LX-305, 905, 1302, 1601, 1603, 2003, 2702, 2901, 3106; 270 μM for LX-1103, 2005, 2007;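 note: A549 cells made senescent by doxorubicin exposure, with DMSO-treated cells serving as the non-senescent control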
Method: (§3) Cells were treated with doxorubicin or control (DMSO) and cultured.

senescent A549 cells = test: Viability of senescent A549 cancer cells (CellTiter-Glo), Example 12; type: cell-based, human; conditions: Homo sapiens, A549, 0 μM = 100, read-out: Survival
Method: as §3
Cancer cells in which aging was induced by treatment with doxorubicin were treated with the test compound at designated concentrations and measured using the CellTiter-Glo Luminescent Cell Viability Assay (Promega).

senescent foreskin cells = test: Survival of senescent human cells treated with supernatant (secreted fluid) from death-induced cells, Example 13; type: cell-based; conditions: senescent treated cells; for viability at 30 µM: Homo sapiens, 72 h
[2] = system: proliferating foreskin cells; test: Survival of proliferating human cells treated with supernatant (secreted fluid) from death-induced cells, Example 13; type: cell-based; conditions: 3 days; for viability at 30 µM: Homo sapiens, 72 h
Method: (§1) After 3 days, cell viability was measured using CellTiter-Glo Luminescent Cell Viability Assay (Promega) or light microscopy.
After treating cells with the test compound at a high concentration that induces the death of most cells in both non-senescence-induced and senescence-induced cells, the cells were washed three times with PBS to remove the test compound, and replaced with fresh medium and cultured for an additional 3 hours at the time when the compound has entered into the cell but has not yet induced cell death (approximately 1 to 3 hours after compound treatment). During this additional culture, by checking with an optical microscope, etc., the medium supernatants containing secreted fluid from normally proliferating and senescent cells in which cell death was induced were obtained. The obtained medium supernatant was replaced with the medium of normally proliferating and senescent cells, respectively, and cell survival rate was measured after 3 days.

[3] = system: naturally aged C57BL6J mice; test: Geriatric depression and anxiety in aged mice, Example 21-8; type: in vivo, mouse; conditions: aged mice
Description: The amount of senescent-associated secretory factor (SASP) in serum and tissues collected from mice of Examples 21-5 and 21-6 was reduced by treatment with LX-5701, LX-2101, or LX-2102. It was confirmed that removing senescent cells, which increase with aging in mice, and effectively reducing the amount of senescent-associated secretory factor (SASP) can improve symptoms of geriatric depression and anxiety.

[4] = system: obesity-induced aged C57BL6J mice; test: Anxiety, depression, lethargy (open field test) in obesity-aged mice, Example 23-4, Table 44; type: in vivo, mouse; conditions: obesity-aged mice
Procedure, shortened: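 Male C57BL6J mice were made obese on a high-fat diet from 15 weeks of age. Compounds were given daily for 21 days: LX-3002 10 mg/kg orally, LX-5701 360 mg/kg orally, LX-6807 1 mg/kg intraperitoneally, with vehicle-treated controls. Open-field activity was then expressed relative to obese untreated mice set at 100%.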

[5] = system: non-senescent proliferating human cells; test: Effect on non-senescent (proliferating) human cells; type: cell-based; conditions: normally proliferating foreskin cells; 30 μM, 3 days
Description: Based on the results of Example 10 of WO2023-085787 A1, compounds that induce the death of senescent cells through a mechanism similar to LX-112, unlike existing senescent cell removers such as ABT-263, were screened based on HMGN1. […] The following test compounds were synthesized by and purchased from Medchemexpress, Selleckchem, Cayman, Medkoo, Sigma, Molport, Enzo, TCI, Santa Cruz, REONSIMI, Abcam, Alfa Aesar, APExBIO, BOCSCI, Merck, Thermo Fisher Scientific, R&D Systems, ChemFaces, Aobious, etc. […] In cells in which senescence was not induced by treatment with the control group (DMSO), the amount of HMGN1 above the effective value (sensitivity: 35 pg/ml), analysis limit, was not detected in both untreated and treated conditions with the test compound. On the other hand, in cells where senescence was induced by treatment with doxorubicin, the amount of HMGN1 was measured at 80 to 90 pg/ml. […]
as §1
Using the same method as Example 11, compounds that induce senescent cell death through a mechanism similar to that of LX-112 (ethaselen (1,2-[bis(1,2-benzisoselenazolone-3 (2H)-ketone)]ethane)) were screened based on HMGN1 and others. […] On the other hand, in cells senescent with doxorubicin, an amount of HMGN1 of […] was measured. […]

naturally aged mice [6] = test: p16, MMP3, IL6 mRNA in liver of naturally aged mice (qRT-PCR), Example 15; type: in vivo, mouse; conditions: untreated aged = 100%, 5 days
Method: (§2) In the same manner as in Example 7-1 of WO2023-085787 A1, naturally aged mice were administered LX-405 (5% DMSO in PBS solution, 10 mg/kg, intraperitoneal administration), LX-801 (PBS, 100 mg/kg, intraperitoneal administration), LX-1102 (0.5% CMC-Na solution, 100 mg/kg, oral administration), LX-1801 (PBS, 50 mg/kg, intraperitoneal administration), LX-2101 (0.5% CMC-Na solution, 10 mg/kg, intraperitoneal administration), and LX-3403 (mouse anti-PD-1 antibody (BioXcell), 100 μg, intraperitoneal administration) for 5 days under the following conditions. The control group was administered only the solution in the same volume. After drug administration was completed, the method described in each Example below was performed. The mouse was sacrificed in the same manner as Example 7-2 and 7-6 of WO2023-085787 A1. Total RNA was extracted from liver tissue, and qRT-PCR was performed and analyzed using synthesized cDNA. […] The mRNA amounts of p16, MMP3, and IL6 after natural aging were induced were calculated as 100% and compared them with the mRNA amounts of p16, MMP3, and IL6 after treatment with the test compound. Furthermore, an open field test was performed to analyze aging-related frailty in mice using the same method as Example 7-7 of WO2023-085787 A1. […] The amount of activity evaluated after inducing aging was calculated as 100% and compared it with the amount of activity evaluated after treatment with the test compound.

naturally aged mice [7] = test: Open field test in naturally aged mice, Example 15; type: in vivo, mouse; conditions: untreated aged = 100%; 5 days; doses as p16 mRNA
Method: as §2

naturally aged mice [8] = test: Anti-aging evaluation in naturally aged mice, Example 31, Table 55; type: in vivo, mouse;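 note: Vehicle-dosed control mice received solution alone at matching volume, values compare test-compound-treated aged mice against that control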
[9] = system: bleomycin-induced pulmonary fibrosis mice; test: Bleomycin-induced pulmonary fibrosis mice, Example 31, Table 56; type: in vivo, mouse; conditions: untreated = 100%
Procedure, shortened: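 Mice with bleomycin-induced pulmonary fibrosis, untreated or given test compound, with vehicle-only controls. Lung tissue collected for RNA extraction and qRT-PCR analysis.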

[10] = system: carbon tetrachloride-induced liver fibrosis mice; test: Carbon tetrachloride-induced liver fibrosis mice, Example 31, Table 57; type: in vivo, mouse; conditions: CCl4-induced liver fibrosis mice, untreated = 100%
Procedure, shortened: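 Mice with induced hepatic fibrosis received either the test compound or, as controls, an equal volume of vehicle solution alone. Once dosing ended, liver tissue was harvested and total RNA was isolated. cDNA was synthesized from this RNA, and quantitative RT-PCR was run on it to measure hepatic mRNA levels of the fibrosis- and senescence-related genes.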

In the case of `CC(O)[C@@H]1NC(=O)COCCOCCNC(=O)[C@H](C(C)O)NC(=O)N[C@@H](C(C)O)C(=O)NNC1=O` (stereo partly drawn) [Cyclic compound 1], the Splnocyte proliferation recovery (Splnocyte) is listed as “Splnocyte proliferation recovery 91%”.
With `COc1cccc2c1C(=O)c1c(O)c3c(c(O)c1C2=O)C[C@@](O)(C(=O)CO)C[C@@H]3O[C@H]1C[C@H](N)[C@H](O)[C@H](C)O1` [DOX, doxorubicin] the “Tumor Diameter” value (SAOS-2) was 16.1 (±0.9) mm.
With `CC(C)c1onc(C(=O)N2CCN(C(c3ccccc3)c3ccccc3)CC2)c1[N+](=O)[O-]` [LX-401] the viability at 1.1 µM (senescent human cells; Homo sapiens, 1.1 μM, 0 μM = 100, read-out: Survival) was 20.4%, the viability at […] (senescent human cells; Homo sapiens, 3.3 μM, 0 μM = 100, read-out: Survival) was 12.4% and the viability at 10 µM (senescent human cells; Homo sapiens, 10 μM, 0 μM = 100, read-out: Survival) was 10.6%. For the same compound, the viability at 30 µM (senescent human cells; Homo sapiens, 30 μM, 0 μM = 100, read-out: Survival) was 7.8%, the “induced death of cells” value (senescent human cells; senescent foreskin cells, 30 μM, 3 days) was “induced the death of most cells” and the HMGN1 [1] was 277%. For the same compound, the viability at 1.1 µM (senescent A549 cells; 1.1 μM) was 89.7%, the viability at […] (senescent A549 cells; 3.3 μM) was 68.6% and the viability at 10 µM (senescent A549 cells; 10 μM) was 42.1%. The viability at 30 µM (senescent A549 cells; 30 μM) was 16.8%, the viability at 30 µM (senescent foreskin cells; supernatant from death-induced proliferating cells, 3 days) was 48.2% and the viability at 30 µM (senescent foreskin cells; supernatant from death-induced senescent cells, 3 days) was 42.2%. For the same compound, the Survival (senescent foreskin cells; supernatant from No Cells, 3 days) was 101.1 (±5.5) %, the viability at 30 µM ([2]; supernatant from death-induced proliferating cells) was 88.1% and the viability at 30 µM ([2]; supernatant from death-induced senescent cells) was 95.1%. The Survival ([2]; supernatant from No Cells) was 97.9 (±7.2) %, the “amount of SASP, p16, SA-β-gal, lipofuscin” value [3] was “reduced” and the “symptoms of geriatric depression and anxiety” value [3] was “improved”. For the same compound, the geriatric depression [4] was “similarly improving geriatric depression” and the “induced death of cells” value [5] was “induced the death of most cells”.
For `Fc1ccc(-n2cc(CCCCN3CCC4(CC3)OCc3ccccc34)c3ccccc32)cc1` [LX-1102, Siramesine], the HMGN1 [1] was 324%, the Survival (senescent foreskin cells; Table 8, supernatant from dying senescent cells treated at 30, 90 or 270 μM (as Example 11)) was 52.9 and the “p16 mRNA” value (naturally aged mice [6]; LX-405 10 mg/kg ip, LX-801 100 mg/kg ip, LX-1102 100 mg/kg po, LX-1801 50 mg/kg ip, LX-2101 10 mg/kg ip, LX-3403 100 μg ip) was 75.2 (±5.5) %. The “IL6 mRNA” value (naturally aged mice [6]; doses as p16 mRNA) was 84.5 (±8.9) %, the “MMP3 mRNA” value (naturally aged mice [6]; doses as p16 mRNA) was 89.7 (±12.5) % and the “Open Field Test Time in Center” value (naturally aged mice [7]) was 163 (±7.9) %. For the same compound, the “Femur Ctsk mRNA” value (naturally aged mice [8]; femur, untreated = 100%) was 62%, the “Heart Sur2a mRNA” value (naturally aged mice [8]; heart, untreated = 1.0) was 1.8 fold and the “Joint Col2a1 mRNA” value (naturally aged mice [8]; joint, untreated = 1.0) was 1.7 fold. For the same compound, the “Kidney Agtr1a mRNA” value (naturally aged mice [8]; kidney, untreated = 100%) was 80%, the “Liver IL6 mRNA” value (naturally aged mice [8]; liver, untreated = 100%) was 74% and the “Liver MMP3 mRNA” value (naturally aged mice [8]; liver, untreated = 100%) was 71%. The “Liver p16 mRNA” value (naturally aged mice [8]; liver, untreated = 100%) was 58%, the “Open Field Test Time in Center” value (naturally aged mice [8]; open field test, untreated = 100%) was 148% and the “Skin Col1a1 mRNA” value (naturally aged mice [8]; skin, untreated = 1.0) was 2.5 Fold. The “Skin SDF1 mRNA” value (naturally aged mice [8]; skin, untreated = 1.0) was 2.3 fold, the “Muscle Mass” value (naturally aged mice [8]; untreated 0.64 g) was 0.65 g and the “Fat Mass” value (naturally aged mice [8]; untreated 0.82 g) was 0.95 g. For the same compound, the Cataract incidence (naturally aged mice [8]; untreated 83%) was 77%, the “Lung p16 mRNA” value ([9]; lung) was 59 (±3.9) % and the “Col1a1 mRNA” value [9] was 68 (±4.1) %. The “Liver p16 mRNA” value ([10]; liver) was 76 (±2.8) % and the “Col1a1 mRNA” value [10] was 64 (±4.7) %.
